From PubChem BioAssay AID2124 (Sanford-Burnham Center for Chemical Genomics, 2009)
Records with an inconclusive call do not appear. Calls of active or inactive are those of the source. The rule behind the calls is not given here; tested in MIN6 cells.

Test: GFP-wavelength compound autofluorescence in cells – imaging, high-content imaging, artefact control, dose response (AID 2124);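 note: cells exposed to compound for 48 hours before fixing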
Settings: cells, GFP-channel autofluorescence, high-content imaging, at 10 µM; for z-score: stronger effect = higher value

CCCSc1nc2sc3c(c2c(=O)[nH]1)CCN(Cc1ccccc1)C3
z-score: -0.3 (inactive)
cell count: 3160 cells

Nc1c(C(=O)c2ccc(Cl)cc2)sc2nsc(SCCN3CCOCC3)c12
z-score: 0.31
cell count: 2540 cells

O=C(Nc1ccon1)c1cccc(S(=O)(=O)N2CCCCC2)c1
z-score: -0.39 (inactive)
cell count: 3190 cells

CC(C)C1S/C(=N/N=C/c2ccco2)NC1=O (stereo not drawn)
z-score: -0.33 (inactive)
cell count: 3160 cells

COc1ccc(C)cc1NC(=O)COC(C)=O
z-score: -0.33 (inactive)
cell count: 3030 cells

O=C(/C=C/c1c[nH]c2ccccc12)c1c(O)n(CCc2ccccc2)c(=O)[nH]c1=O
z-score: 2.73
cell count: 2920 cells

Oc1c(C=NCc2ccc(F)cc2)[nH]c2ccc(Br)c(Cl)c12
z-score: -0.31 (inactive)
cell count: 3310 cells

COc1cc(Cl)c(C)cc1NC(=O)CN(C)Cc1cccc(OC)c1OC
z-score: -0.26 (inactive)
cell count: 2910 cells

O=C1S/C(=C/c2ccc(N3CCOCC3)o2)C(=O)N1Cc1ccc(F)cc1
z-score: 0.51
cell count: 3300 cells

O=C(CNC(=O)c1ccco1)OCC(=O)c1ccccc1
z-score: -0.33 (inactive)
cell count: 3180 cells

Cc1ccc(-c2cc(-c3ccco3)c3c(N)c(C(=O)NN)oc3n2)cc1
z-score: -0.32 (inactive)
cell count: 2700 cells

Nc1c(C(=O)N/N=C/c2ccccc2Cl)oc2nc(-c3ccccc3)cc(-c3ccco3)c12
z-score: -0.27 (inactive)
cell count: 2970 cells

CCCCCCc1cc2cc(-c3nnc(-c4ccccc4OC)o3)c(=O)oc2cc1O
z-score: -0.21 (inactive)
cell count: 2630 cells

CCN1/C(=C/C=C/c2oc3ccc4ccccc4c3[n+]2CC)Oc2ccc3ccccc3c21
z-score: 1.7
cell count: 330 cells

CCOC(=O)CC1C(=O)NCCN1c1nc2c(C)cccn2c(=O)c1/C=C1\SC(=S)N(C(C)CC)C1=O (stereo not drawn)
z-score: 0.45
cell count: 3100 cells

CC1CCCCC1NC(=O)COC(=O)c1c2c(nc3ccccc13)/C(=C/c1ccco1)CC2 (stereo not drawn)
z-score: -0.35 (inactive)
cell count: 2820 cells

Cc1cc(C)n(-c2ccc(OCC(=O)O)nn2)n1
z-score: -0.33 (inactive)
cell count: 3400 cells

C1=C(N2CCOCC2)/C(=C/c2nc3ccccc3[nH]2)CC1
z-score: -0.33 (inactive)
cell count: 3040 cells

COc1ccc(N(C(=O)Cc2cccs2)C2C=CS(=O)(=O)C2)cc1 (stereo not drawn)
z-score: -0.39 (inactive)
cell count: 3350 cells

COc1ccccc1Nc1nc(Cl)c(C=O)s1
z-score: -0.31 (inactive)
cell count: 2970 cells

Cc1ccc(CN=Cc2[nH]c3ccc(Br)c(Cl)c3c2O)cc1
z-score: -0.33 (inactive)
cell count: 2930 cells

COc1ccccc1NC(=O)COC(=O)C1CC2C=CC1C2 (stereo not drawn)
z-score: -0.25 (inactive)
cell count: 2990 cells

CNC(=O)C1CC(=O)N/C(=N/N=C(\C)c2cccs2)S1 (stereo not drawn)
z-score: -0.38 (inactive)
cell count: 3440 cells

S=c1[nH]nc(-c2ccccc2)n1CC1CCCO1 (stereo not drawn)
z-score: -0.33 (inactive)
cell count: 3250 cells

CCN1C(=O)CSc2ccc(C(=O)NCc3ccccc3OC)cc21
z-score: -0.33 (inactive)
cell count: 2980 cells

CCc1c(C(=O)NC2CCCCC2)[nH]c(C)c1C(C)=O
z-score: -0.25 (inactive)
cell count: 3040 cells

CCN(CC)c1ccc(/C=C(/C#N)c2nc3ccc(C)cc3[nH]2)c(OC(C)C)c1
z-score: 2.57
cell count: 1480 cells

OC1(c2cn(Cc3ccccc3)nn2)CCCCC1
z-score: -0.33 (inactive)
cell count: 3100 cells

CCC(C)N1C(=O)/C(=C/c2c(NCCCOC(C)C)nc3c(C)cccn3c2=O)SC1=S (stereo not drawn)
z-score: 1.19
cell count: 2350 cells

Nc1c(C(=O)O)sc2nc(-c3ccccc3)cc(-c3ccccc3)c12
z-score: -0.28 (inactive)
cell count: 3320 cells

N#C/C(=C/c1ccc(-c2ccc(S(N)(=O)=O)cc2)o1)c1nc2ccccc2s1
z-score: 1.86
cell count: 1680 cells

CCN(CCNC(=O)C1CCCN(S(=O)(=O)CC)C1)c1ccccc1 (stereo not drawn)
z-score: -0.33 (inactive)
cell count: 3430 cells

CC1CCc2c(sc3nn[nH]c(=O)c23)C1 (stereo not drawn)
z-score: -0.33 (inactive)
cell count: 2750 cells

N#C/C(=C/c1ccc(N2CCCCCC2)o1)c1ccc(Cl)cc1
z-score: 0.94
cell count: 277 cells

c1ccc(-c2csc(-n3cnnn3)n2)cc1
z-score: -0.38 (inactive)
cell count: 3240 cells

CCOC(=O)c1nn(-c2ccc(Cl)cc2Cl)c(=N)c(C#N)c1C
z-score: 0.25
cell count: 2790 cells

CCN1C=CC2=C(C#N)C(N)C(C#N)(C#N)C(c3ccccc3C(F)(F)F)C2C1 (stereo not drawn)
z-score: 0.77
cell count: 2720 cells

CCCOc1ccc(-c2nn(-c3ccccc3)cc2/C=C2\SC(=S)N(C3CCS(=O)(=O)C3)C2=O)cc1 (stereo not drawn)
z-score: -0.23 (inactive)
cell count: 2830 cells

CCC(=O)Nc1ccc(C(=O)OCC(=O)c2ccc(C)c([N+](=O)[O-])c2)cc1
z-score: -0.33 (inactive)
cell count: 2960 cells

Cc1cc(C)nc(SCSc2nc(C)cc(C)n2)n1
z-score: -0.38 (inactive)
cell count: 3370 cells

O=C(NCCN1CCCC1)C1(S(=O)(=O)c2ccc(Cl)cc2)CC1
z-score: -0.33 (inactive)
cell count: 2860 cells

Cc1cc(C)nc(N2CCC(C(=O)Nc3ccc4c(c3)OCCO4)CC2)n1
z-score: -0.33 (inactive)
cell count: 2790 cells

CN1CCN(C2=CC3=CC(=C(C#N)C#N)CCC3CC2)CC1 (stereo not drawn)
z-score: 0.91
cell count: 2810 cells

COc1cccc(S(=O)(=O)NCc2ccc(C(=O)Nc3ccc(Cl)c(Cl)c3)cc2)c1
z-score: -0.33 (inactive)
cell count: 2580 cells

Cc1cc(=O)oc2cc(OCC(=O)OCC(=O)NC3CC3)ccc12
z-score: -0.38 (inactive)
cell count: 3150 cells

CCS(=O)(=O)c1ccc2oc(SCC(=O)NC3CCCC(C)C3C)nc2c1 (stereo not drawn)
z-score: -0.26 (inactive)
cell count: 2950 cells

CNC(=S)NNC(=O)c1oc2nc(-c3ccccc3)cc(-c3ccco3)c2c1N
z-score: -0.3 (inactive)
cell count: 2940 cells

CCOc1ccc(C2C(C(=O)O)c3ccccc3C(=O)N2CCN2CCOCC2)cc1 (stereo not drawn)
z-score: -0.39 (inactive)
cell count: 3370 cells

Cc1ccc(C(=O)NN2C(=O)/C(=C/c3cn(C)c4ccccc34)SC2=S)cc1
z-score: -0.27 (inactive)
cell count: 3060 cells

CN1/C(=C/C=C(C#N)C#N)C=Cc2ccccc21
z-score: -0.35 (inactive)
cell count: 2500 cells

COc1ccc(NC(=O)CSc2nnc(-c3cccs3)n2C)cc1OC
z-score: -0.39 (inactive)
cell count: 2880 cells

Cc1ccc(N=C2NC(=O)/C(=C/c3cn(C)c4ccccc34)S2)cc1C
z-score: -0.23 (inactive)
cell count: 2580 cells

CS(=O)(=O)ON=C1CCN(S(=O)(=O)c2ccccc2)CC1
z-score: -0.33 (inactive)
cell count: 3400 cells

CC(NC(=O)/C(C#N)=C1\N=C(NC(=O)c2ccco2)c2ccccc21)c1ccccc1 (stereo not drawn)
z-score: -0.32 (inactive)
cell count: 2760 cells

O=C(Nc1nnc(-c2ccccc2)o1)Nc1ccccc1Cl
z-score: -0.39 (inactive)
cell count: 2750 cells

C=CCSc1nnc(NC(=O)c2cccc(S(=O)(=O)N3CCOCC3)c2)s1
z-score: -0.38 (inactive)
cell count: 2670 cells

C=CCNC(=O)c1c2c(nc3ccccc13)-c1ccccc1CC2
z-score: -0.39 (inactive)
cell count: 3270 cells

CCCCn1c(SCC(=O)O)nc2ccccc21
z-score: -0.33 (inactive)
cell count: 2830 cells

O=[N+]([O-])c1ccc(N/N=C/c2c[nH]c3ccccc23)cc1
z-score: 0.33
cell count: 1200 cells

COc1cc(OC)c(OC)cc1/C=C1\Oc2cc(OS(C)(=O)=O)ccc2C1=O
z-score: -0.24 (inactive)
cell count: 3060 cells

O=c1[nH]c(/C=C/c2ccccc2OC(F)F)nc2c1cnn2-c1ccccc1
z-score: -0.38 (inactive)
cell count: 2240 cells

CC(C)N1CCc2c(sc(NC(=O)c3cc4cc([N+](=O)[O-])ccc4s3)c2C(N)=O)C1
z-score: -0.23 (inactive)
cell count: 177 cells

CCCCCCc1cc2cc(-c3nnc(-c4ccccc4O)o3)c(=O)oc2cc1O
z-score: -0.21 (inactive)
cell count: 2760 cells

COc1cc([N+](=O)[O-])ccc1-c1ccc(/C=N/NC(N)=O)o1
z-score: -0.34 (inactive)
cell count: 2860 cells

Cc1ccccc1C(=O)N1CCc2ccccc2C1
z-score: -0.39 (inactive)
cell count: 3270 cells

CC(NC(=O)/C(C#N)=C1\N=C(NC(=O)c2cccs2)c2ccccc21)c1ccccc1 (stereo not drawn)
z-score: -0.38 (inactive)
cell count: 2810 cells

CCCCCCn1c(O)c(C=Nc2ccccc2N2CCOCC2)c(=O)[nH]c1=S
z-score: -0.37 (inactive)
cell count: 3050 cells

CCOC(=O)/C(C#N)=C/C=C1\C=Cc2ccccc2N1CC
z-score: -0.28 (inactive)
cell count: 2720 cells

CCOC(=O)Cn1c2ccc(F)cc2c2nc(C)sc21
z-score: -0.39 (inactive)
cell count: 2900 cells

O=C(O)CC12CSc3[nH]c(=O)sc3C1c1ccccc1OC2=O (stereo not drawn)
z-score: -0.33 (inactive)
cell count: 3020 cells

CN1/C(=C\C=C2C(=O)NC(=S)NC2=O)C(C)(C)c2ccccc21
z-score: 3.61
cell count: 2700 cells

CC(C)C(c1nnnn1C1CCCC1)N1CCOCC1 (stereo not drawn)
z-score: -0.33 (inactive)
cell count: 3180 cells

CN1C2CCC1/C(=C/c1cccn1C)C(=O)/C2=C\c1cccn1C
z-score: -0.29 (inactive)
cell count: 3280 cells

CCCC1C2CN(C(C)C)CC=C2C(C#N)=C(N)C1(C#N)C#N (stereo not drawn)
z-score: 0.45
cell count: 2800 cells

CC1CCCN(c2nc3c(c(=O)n(C)c(=O)n3C)n2CCSc2nc3ccccc3s2)C1 (stereo not drawn)
z-score: -0.38 (inactive)
cell count: 3180 cells

C1=C(c2ccccc2)Nc2nnnn2C1
z-score: -0.26 (inactive)
cell count: 3170 cells

CCOc1cc(N(CC)CC)ccc1/C=C(/C#N)c1nc2ccccc2[nH]1
z-score: 1.08
cell count: 1870 cells

COc1cccc(C(=O)CN2C(=O)C(C)(C)Oc3ccc(C(=O)N4CCCCCC4)cc32)c1
z-score: -0.33 (inactive)
cell count: 3680 cells

Cc1cc2nc3c(=O)n(Cc4ccccc4)c(=O)[nH]c3nc2cc1N
z-score: -0.33 (inactive)
cell count: 2710 cells
